Data taken from the supplement of paper PMC10307832.

Legend:
Assay in all cases: relative viability (nuclei count vs DMSO), 5 days (fraction); higher = more cells survive
[1] = system: NCI-H322M
Method in brief: (§1)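 Cells from lung cancer lines were seeded into 1536-well plates and, one day later, dosed by pin tool. Treatments were either a single drug or a fixed dose of an anchor drug with five library-drug doses (not always all listed) in √10 steps. After 5 days, nuclei were stained in a one-step fixation (final 0.05% Triton X-100, 1% formaldehyde, 1 ug/ml Hoechst) and counted on 4× images, and relative viability is the treated-to-vehicle nuclei ratio, as the median of duplicate plates.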

[2] = system: H3255
Method in brief: as §1

[3] = system: NCI-H1666
Method in brief: as §1

[4] = system: NCI-H358
Method in brief: as §1

[5] = system: UMC-11
Method in brief: as §1

[6] = system: LXF-289
Method in brief: as §1

[7] = system: SK-MES-1
Method in brief: as §1

[8] = system: HCC-15
Method in brief: as §1

[9] = system: LCLC-97TM1
Method in brief: as §1

[10] = system: ChaGo-K-1
Method in brief: as §1

[11] = system: NCI-H661
Method in brief: as §1

[12] = system: LC-2-ad
Method in brief: as §1

[13] = system: NCI-H650
Method in brief: as §1

[14] = system: LK-2
Method in brief: as §1

[15] = system: NCI-H596
Method in brief: as §1

[16] = system: NCI-H2087
Method in brief: as §1

[17] = system: HCC-78
Method in brief: as §1

[18] = system: NCI-H838
Method in brief: as §1

[19] = system: NCI-H1944
Method in brief: as §1

[20] = system: BEN
Method in brief: as §1

[21] = system: PC-3 [JPC-3]
Method in brief: as §1

[22] = system: NCI-H1651
Method in brief: as §1

[23] = system: LU99A
Method in brief: as §1

SMILES: COc1cc(N2CCC(C(N)=O)CC2)ccc1Nc1nc(N)c(Cl)c(Nc2ccccc2S(=O)(=O)C(C)C)n1 [HG-5-88-01] + C[C@@H](Oc1cc(-c2cnn(C3CCNCC3)c2)cnc1N)c1c(Cl)ccc(F)c1Cl [Crizotinib] (partner 1 µM)
- relative viability ([1]; first compound 0.04 µM): 0.978
- relative viability ([1]; first compound 0.1265 µM): 0.855
- relative viability ([1]; first compound 0.4 µM): 0.882
- relative viability ([1]; first compound 1.265 µM): 0.687
- relative viability ([1]; first compound 4 µM): 0.818
- relative viability ([2]; first compound 0.04 µM): 0.844
- relative viability ([2]; first compound 0.1265 µM): 0.949
- relative viability ([2]; first compound 0.4 µM): 0.833
- relative viability ([2]; first compound 4 µM): 0.308
- relative viability ([3]; first compound 0.04 µM): 1.01
- relative viability ([3]; first compound 0.1265 µM): 1.1
- relative viability ([3]; first compound 0.4 µM): 0.941
- relative viability ([3]; first compound 1.265 µM): 0.794
- relative viability ([3]; first compound 4 µM): 0.594
- relative viability ([4]; first compound 0.04 µM): 0.526
- relative viability ([4]; first compound 0.1265 µM): 0.461
- relative viability ([4]; first compound 0.4 µM): 0.529
- relative viability ([4]; first compound 1.265 µM): 0.318
- relative viability ([4]; first compound 4 µM): 0.235
- relative viability ([5]; first compound 0.04 µM): 0.652
- relative viability ([5]; first compound 0.1265 µM): 0.581
- relative viability ([5]; first compound 0.4 µM): 0.621
- relative viability ([5]; first compound 1.265 µM): 0.445
- relative viability ([5]; first compound 4 µM): 0.171
- relative viability ([6]; first compound 0.04 µM): 0.804
- relative viability ([6]; first compound 0.1265 µM): 0.797
- relative viability ([6]; first compound 0.4 µM): 0.851
- relative viability ([6]; first compound 1.265 µM): 0.831
- relative viability ([6]; first compound 4 µM): 0.827
- relative viability ([7]; first compound 0.04 µM): 0.96
- relative viability ([7]; first compound 0.1265 µM): 0.988
- relative viability ([7]; first compound 0.4 µM): 1.01
- relative viability ([7]; first compound 1.265 µM): 0.978
- relative viability ([7]; first compound 4 µM): 0.923
- relative viability ([8]; first compound 0.04 µM): 0.898
- relative viability ([8]; first compound 0.1265 µM): 0.775
- relative viability ([8]; first compound 0.4 µM): 0.779
- relative viability ([8]; first compound 1.265 µM): 0.801
- relative viability ([8]; first compound 4 µM): 0.77
- relative viability ([9]; first compound 0.04 µM): 0.461
- relative viability ([9]; first compound 0.1265 µM): 0.379
- relative viability ([9]; first compound 0.4 µM): 0.359
- relative viability ([9]; first compound 1.265 µM): 0.23
- relative viability ([9]; first compound 4 µM): 0.239
- relative viability ([10]; first compound 0.04 µM): 1.12
- relative viability ([10]; first compound 0.1265 µM): 1.14
- relative viability ([10]; first compound 0.4 µM): 1.03
- relative viability ([10]; first compound 1.265 µM): 0.888
- relative viability ([10]; first compound 4 µM): 0.787
- relative viability ([11]; first compound 0.1265 µM): 0.964
- relative viability ([11]; first compound 0.4 µM): 1.1
- relative viability ([11]; first compound 1.265 µM): 0.777
- relative viability ([11]; first compound 4 µM): 0.926
- relative viability ([12]; first compound 0.04 µM): 0.436
- relative viability ([12]; first compound 0.1265 µM): 0.496
- relative viability ([12]; first compound 0.4 µM): 0.5
- relative viability ([12]; first compound 1.265 µM): 0.4
- relative viability ([12]; first compound 4 µM): 0.368
- relative viability ([13]; first compound 0.04 µM): 0.812
- relative viability ([13]; first compound 0.1265 µM): 0.739
- relative viability ([13]; first compound 0.4 µM): 0.579
- relative viability ([13]; first compound 1.265 µM): 0.519
- relative viability ([13]; first compound 4 µM): 0.398
- relative viability ([14]; first compound 0.04 µM): 0.24
- relative viability ([14]; first compound 0.1265 µM): 0.227
- relative viability ([14]; first compound 0.4 µM): 0.234
- relative viability ([14]; first compound 1.265 µM): 0.249
- relative viability ([14]; first compound 4 µM): 0.21
- relative viability ([15]; first compound 0.04 µM): 0.949
- relative viability ([15]; first compound 0.1265 µM): 1.04
- relative viability ([15]; first compound 0.4 µM): 1.02
- relative viability ([15]; first compound 1.265 µM): 0.936
- relative viability ([15]; first compound 4 µM): 0.734
- relative viability ([16]; first compound 0.04 µM): 0.758
- relative viability ([16]; first compound 0.1265 µM): 0.868
- relative viability ([16]; first compound 0.4 µM): 0.839
- relative viability ([16]; first compound 1.265 µM): 0.825
- relative viability ([16]; first compound 4 µM): 0.527
- relative viability ([17]; first compound 0.04 µM): 0.37
- relative viability ([17]; first compound 0.1265 µM): 0.319
- relative viability ([17]; first compound 0.4 µM): 0.31
- relative viability ([17]; first compound 1.265 µM): 0.185
- relative viability ([17]; first compound 4 µM): 0.275
- relative viability ([18]; first compound 0.04 µM): 0.799
- relative viability ([18]; first compound 0.1265 µM): 0.868
- relative viability ([18]; first compound 0.4 µM): 0.641
- relative viability ([18]; first compound 1.265 µM): 0.571
- relative viability ([18]; first compound 4 µM): 0.596
- relative viability ([19]; first compound 0.04 µM): 1.09
- relative viability ([19]; first compound 0.1265 µM): 1.13
- relative viability ([19]; first compound 0.4 µM): 1.09
- relative viability ([19]; first compound 1.265 µM): 0.82
- relative viability ([19]; first compound 4 µM): 1.06
- relative viability ([20]; first compound 0.04 µM): 0.975
- relative viability ([20]; first compound 0.1265 µM): 0.915
- relative viability ([20]; first compound 0.4 µM): 0.895
- relative viability ([20]; first compound 1.265 µM): 0.625
- relative viability ([20]; first compound 4 µM): 0.962
- relative viability ([21]; first compound 0.04 µM): 0.983
- relative viability ([21]; first compound 0.1265 µM): 1.03
- relative viability ([21]; first compound 0.4 µM): 1.07
- relative viability ([21]; first compound 1.265 µM): 0.937
- relative viability ([21]; first compound 4 µM): 0.64
- relative viability ([22]; first compound 0.04 µM): 0.866
- relative viability ([22]; first compound 0.1265 µM): 0.828
- relative viability ([22]; first compound 0.4 µM): 0.808
- relative viability ([22]; first compound 1.265 µM): 0.713
- relative viability ([22]; first compound 4 µM): 0.942
- relative viability ([23]; first compound 0.04 µM): 0.554
- relative viability ([23]; first compound 0.1265 µM): 0.615
- relative viability ([23]; first compound 0.4 µM): 0.511
- relative viability ([23]; first compound 1.265 µM): 0.491
- relative viability ([23]; first compound 4 µM): 0.423
